Results as given in patent publication US12036226B2, “Methods of treating subjects having diabetes with chronic kidney disease” (Poxel SA, priority 2018, dated 2024).

Assays:
[1] = system: subjects with T2DM and CKD stage 3B or 4; assay: Phase 1b 28-day safety, tolerability and PK study in subjects with T2DM and CKD stage 3B or 4; type: in vivo
Description: An Open Label, Parallel Arm Study to Assess the Safety, Tolerability, and Pharmacokinetics of Imeglimin in Subjects with Type 2 Diabetes Mellitus (T2DM) and Moderate to Severe Chronic Kidney Disease (CKD)
This Phase 1b study is to assess the safety, tolerability and pharmacokinetics (PK) of imeglimin in subjects with T2DM and CKD stage 3B or 4.
Subjects will be randomly allocated to receive one of three treatments or placebo.
Doses which are below the minimally acceptable doses are acceptable if stable for 12 weeks prior to Screening as per prescribing information. […] Primary Outcome Measures […]
Safety can be evaluated by assessment of clinical laboratory tests, physical examinations, vital signs measurements, and ECG readings at various time points during the study, and by the documentation of AEs.
The incidence of treatment-emergent adverse events (TEAE) will be summarized by treatment.
Plasma lactate will be summarized descriptively by absolute value at each visit by treatment group, together with the corresponding changes from baseline.
Pharmacokinetics (PK) data can be descriptively summarized by treatment group. PK parameters will be determined using noncompartmental methods. […] Steady-state can be evaluated using the trough concentration data.

[2] = system: subjects with T2DM; assay: 24-week Phase IIb dose-ranging placebo-controlled study in subjects with T2DM; type: in vivo, human; conditions: for Mean HbA1c Change from Baseline: Week 24, T2D and Stage 2 and 3a CKD
Experimental: A 24-Week, Phase IIb, Dose-Ranging, Randomized, Double-blind, Placebo-controlled, Parallel-group Safety and Efficacy Study in Subjects with T2DM
The five parallel groups included 4 groups of imeglimin doses (500, 1000, 1500, or 2000 mg twice daily) and 1 placebo group. The primary endpoint was to assess the dose-response in T2D subjects, using change in HbA1c from baseline to week 24 as the primary evaluation criterion. Subjects could be either treatment naïve or treated with any oral antidiabetic monotherapy and were to have an eGFR of ≥50 mL/min/1.73 m^2. A total of 382 subjects were randomized 1:1:1:1:1 to one of the 5 study arms, with 315 subjects completing the study.

[3] = Metabolism in standard in vitro assays; type: in vitro ADME
[4] = Pharmacokinetics of imeglimin (dose proportionality, excretion pathway); type: in vivo
[5] = Imeglimin Total, CKD3b (n = 21)

## C[C@H]1N=C(N(C)C)N=C(N)N1 [imeglimin, (6R)—N^2, N^2,6-trimethyl-3,6-dihydro-1,3,5-triazine-2,4-diamine]
[1]; 500 mg BID, CKD3b (n = 8)
  Subjects with any TEAE: 2 (25%) n, %
  Subjects with any TEAE by maximum severity: Grade 1 - Mild: 1 (13%) n, %
  Subjects with any TEAE by maximum severity: Grade 2 - Moderate: 1 (13%) n, %
  Subjects with any TEAE by maximum severity: Grade 3 - Severe: 0 n, %
  Subjects with any TEAE by maximum severity: Grade 4 - Life-threatening: 0 n, %
  Subjects with any TEAE by maximum severity: Grade 5 - Death: 0 n, %
  Subjects with any study drug related TEAE: 0 n, %
  Subjects with any study drug related TEAE: Grade 1 - Mild: 0 n, %
  Subjects with any study drug related TEAE: Grade 2 - Moderate: 0 n, %
  Subjects with any study drug related TEAE: Grade 3 - Severe: 0 n, %
  Subjects with any study drug related TEAE: Grade 4 - Life-threatening: 0 n, %
  Subjects with any study drug related TEAE: Grade 5 - Death: 0 n, %
  TEAE: Gastrointestinal disorders: 1 (13%) n, %
[1]; 500 mg BID, CKD4 (n = 5)
  Subjects with any TEAE: 1 (20%) n, %
  Subjects with any TEAE by maximum severity: Grade 1 - Mild: 0 n, %
  Subjects with any TEAE by maximum severity: Grade 2 - Moderate: 1 (20%) n, %
  Subjects with any TEAE by maximum severity: Grade 3 - Severe: 0 n, %
  Subjects with any TEAE by maximum severity: Grade 4 - Life-threatening: 0 n, %
  Subjects with any TEAE by maximum severity: Grade 5 - Death: 0 n, %
  Subjects with any study drug related TEAE: 0 n, %
  Subjects with any study drug related TEAE: Grade 1 - Mild: 0 n, %
  Subjects with any study drug related TEAE: Grade 2 - Moderate: 0 n, %
  Subjects with any study drug related TEAE: Grade 3 - Severe: 0 n, %
  Subjects with any study drug related TEAE: Grade 4 - Life-threatening: 0 n, %
  Subjects with any study drug related TEAE: Grade 5 - Death: 0 n, %
  TEAE: Gastrointestinal disorders: 0 n, %
[1]; 1000 mg BID, CKD3b (n = 6)
  Subjects with any TEAE: 4 (67%) n, %
  Subjects with any TEAE by maximum severity: Grade 1 - Mild: 2 (33%) n, %
  Subjects with any TEAE by maximum severity: Grade 2 - Moderate: 2 (33%) n, %
  Subjects with any TEAE by maximum severity: Grade 3 - Severe: 0 n, %
  Subjects with any TEAE by maximum severity: Grade 4 - Life-threatening: 0 n, %
  Subjects with any TEAE by maximum severity: Grade 5 - Death: 0 n, %
  Subjects with any study drug related TEAE: 2 (33%) n, %
  Subjects with any study drug related TEAE: Grade 1 - Mild: 1 (17%) n, %
  Subjects with any study drug related TEAE: Grade 2 - Moderate: 1 (17%) n, %
  Subjects with any study drug related TEAE: Grade 3 - Severe: 0 n, %
  Subjects with any study drug related TEAE: Grade 4 - Life-threatening: 0 n, %
  Subjects with any study drug related TEAE: Grade 5 - Death: 0 n, %
  TEAE: Gastrointestinal disorders: 1 (17%) n, %
[1]; 1000 mg BID, CKD4 (n = 7)
  Subjects with any TEAE: 4 (57%) n, %
  Subjects with any TEAE by maximum severity: Grade 1 - Mild: 2 (29%) n, %
  Subjects with any TEAE by maximum severity: Grade 2 - Moderate: 2 (29%) n, %
  Subjects with any TEAE by maximum severity: Grade 3 - Severe: 0 n, %
  Subjects with any TEAE by maximum severity: Grade 4 - Life-threatening: 0 n, %
  Subjects with any TEAE by maximum severity: Grade 5 - Death: 0 n, %
  Subjects with any study drug related TEAE: 1 (14%) n, %
  Subjects with any study drug related TEAE: Grade 1 - Mild: 1 (14%) n, %
  Subjects with any study drug related TEAE: Grade 2 - Moderate: 0 n, %
  Subjects with any study drug related TEAE: Grade 3 - Severe: 0 n, %
  Subjects with any study drug related TEAE: Grade 4 - Life-threatening: 0 n, %
  Subjects with any study drug related TEAE: Grade 5 - Death: 0 n, %
  TEAE: Gastrointestinal disorders: 2 (29%) n, %
[1]; 1500 mg QD, CKD3b (n = 17)
  Subjects with any TEAE: 4 (57%) n, %
  Subjects with any TEAE by maximum severity: Grade 1 - Mild: 3 (43%) n, %
  Subjects with any TEAE by maximum severity: Grade 2 - Moderate: 1 (14%) n, %
  Subjects with any TEAE by maximum severity: Grade 3 - Severe: 0 n, %
  Subjects with any TEAE by maximum severity: Grade 4 - Life-threatening: 0 n, %
  Subjects with any TEAE by maximum severity: Grade 5 - Death: 0 n, %
  Subjects with any study drug related TEAE: 1 (14%) n, %
  Subjects with any study drug related TEAE: Grade 1 - Mild: 1 (14%) n, %
  Subjects with any study drug related TEAE: Grade 2 - Moderate: 0 n, %
  Subjects with any study drug related TEAE: Grade 3 - Severe: 0 n, %
  Subjects with any study drug related TEAE: Grade 4 - Life-threatening: 0 n, %
  Subjects with any study drug related TEAE: Grade 5 - Death: 0 n, %
  TEAE: Gastrointestinal disorders: 3 (43%) n, %
[1]; 1500 mg QD, CKD4 (n = 5)
  Subjects with any TEAE: 3 (60%) n, %
  Subjects with any TEAE by maximum severity: Grade 1 - Mild: 3 (60%) n, %
  Subjects with any TEAE by maximum severity: Grade 2 - Moderate: 0 n, %
  Subjects with any TEAE by maximum severity: Grade 3 - Severe: 0 n, %
  Subjects with any TEAE by maximum severity: Grade 4 - Life-threatening: 0 n, %
  Subjects with any TEAE by maximum severity: Grade 5 - Death: 0 n, %
  Subjects with any study drug related TEAE: 2 (40%) n, %
  Subjects with any study drug related TEAE: Grade 1 - Mild: 2 (40%) n, %
  Subjects with any study drug related TEAE: Grade 2 - Moderate: 0 n, %
  Subjects with any study drug related TEAE: Grade 3 - Severe: 0 n, %
  Subjects with any study drug related TEAE: Grade 4 - Life-threatening: 0 n, %
  Subjects with any study drug related TEAE: Grade 5 - Death: 0 n, %
  TEAE: Gastrointestinal disorders: 2 (40%) n, %
[1]; CKD stages 3B and 4, 28 days
  confirmed plasma lactate elevations: no cases of confirmed plasma lactate elevations
  lactic acidosis: no lactic acidosis
  serious adverse events: no incidence of serious adverse events
[1]; Day 15, 1500 mg QD and 1000 mg BID treatment groups
  AUC by CKD stage: increased in the T2DM with CKD stage 4 compared to CKD3B
[1]; [5]
  Subjects with any TEAE: 10 (48%) n, %
  Subjects with any TEAE by maximum severity: Grade 1 - Mild: 6 (29%) n, %
  Subjects with any TEAE by maximum severity: Grade 2 - Moderate: 4 (19%) n, %
  Subjects with any TEAE by maximum severity: Grade 3 - Severe: 0 n, %
  Subjects with any TEAE by maximum severity: Grade 4 - Life-threatening: 0 n, %
  Subjects with any TEAE by maximum severity: Grade 5 - Death: 0 n, %
  Subjects with any study drug related TEAE: 3 (14%) n, %
  Subjects with any study drug related TEAE: Grade 1 - Mild: 2 (10%) n, %
  Subjects with any study drug related TEAE: Grade 2 - Moderate: 1 (5%) n, %
  Subjects with any study drug related TEAE: Grade 3 - Severe: 0 n, %
  Subjects with any study drug related TEAE: Grade 4 - Life-threatening: 0 n, %
  Subjects with any study drug related TEAE: Grade 5 - Death: 0 n, %
  TEAE: Gastrointestinal disorders: 5 (24%) n, %
[1]; Imeglimin Total, CKD4 (n = 17)
  Subjects with any TEAE: 8 (47%) n, %
  Subjects with any TEAE by maximum severity: Grade 1 - Mild: 5 (29%) n, %
  Subjects with any TEAE by maximum severity: Grade 2 - Moderate: 3 (18%) n, %
  Subjects with any TEAE by maximum severity: Grade 3 - Severe: 0 n, %
  Subjects with any TEAE by maximum severity: Grade 4 - Life-threatening: 0 n, %
  Subjects with any TEAE by maximum severity: Grade 5 - Death: 0 n, %
  Subjects with any study drug related TEAE: 3 (18%) n, %
  Subjects with any study drug related TEAE: Grade 1 - Mild: 3 (18%) n, %
  Subjects with any study drug related TEAE: Grade 2 - Moderate: 0 n, %
  Subjects with any study drug related TEAE: Grade 3 - Severe: 0 n, %
  Subjects with any study drug related TEAE: Grade 4 - Life-threatening: 0 n, %
  Subjects with any study drug related TEAE: Grade 5 - Death: 0 n, %
  TEAE: Gastrointestinal disorders: 4 (24%) n, %
[1]; after the morning dose on Day 15
  maximum observed concentrations (Cmax): increased in a dose-dependent manner
[1]; as CKD severity increased (up to stage 4)
  tolerability: well tolerated
[2]; 500 mg BID (n = 44)
  Mean HbA1c Change from Baseline: 0.007%
[2]; 1000 mg BID (n = 43)
  Mean HbA1c Change from Baseline: −0.072%
[2]; 1500 mg BID (n = 41)
  Mean HbA1c Change from Baseline: −0.502%
[2]; 2000 mg BID (n = 42)
  Mean HbA1c Change from Baseline: −0.193%
[2]; post-hoc analysis, stage 2 and 3a CKD (eGFR <90 mL/min/1.73 m^2, n=211)
  HbA1c lowering compared to placebo: improvement in HbA1c lowering as compared to placebo
[3]
  metabolism: no appreciable metabolism
[4]; 250 to 2000 mg range
  dose proportionality of exposures: less than dose proportional exposures
[4]; in vivo
  main excretion pathway: renal elimination as the main excretion pathway
